Patent US9744250B2, “Chemical model of a neurodegenerative disease, method for preparation and uses of same” (priority 2012, dated 2017)

What was measured:
[1] = Cell viability test in MTT; format: cell-based, human; details: human, SH-SY5Y neuroblastoma cells, 96 h of incubation, read-out: reduction of cell viability
Description: (§1) Cells from SH-SY5Y human neuroblastomas were cultured in a DMEM medium containing 4.5 g·L^−1 glucose, 10% fetal calf serum, and 1% penicillin/streptomycin, and placed in an incubator at 37° C. with 7% CO2.
(§2) In the various experiments, the SH-SY5Y cells were seeded at a density of 4×10^4 cells/mL. 24 h after seeding, the cells were exposed to the various test compounds at 37° C. for 24 h, 48 h, 72 h, or 96 h.
(§3) This test consisted of rapidly measuring cellular metabolic activity in the presence of the study compound at different concentrations, in order to conduct a dose-response study. To do this, the tetrazolium salt MTT, 3-(4,5-dimethylthiazol-2-yl)-2,5-diphenyltetrazolium bromide (Amoroso et al., Biochim Biophys Acta, 1999, 1452(2):151-60), was placed in contact with the cells. MTT is reduced to formazan by living cells that have the capacity to metabolize it, unlike dead cells. To conduct this test, SH-SY5Y neuronal cells in 48-well plates were incubated for 24 h, 48 h, 72 h, and 96 h, with furosemide pyridinium at concentrations ranging from 0 to 1000 μM. Then MTT (0.5 mg/ml final) was added to each well and incubated at 37° C. for 2 h. At the end of incubation, after carefully removing the medium, DMSO was added (200 μL) to dissolve the cell membranes and the formazan crystals formed by the living cells. The toxicity of the molecule was evaluated by determining the amount of reduced MTT, doing so by measuring the absorbance at 550 nm as this value is proportional to the number of living cells. The results were expressed as a function of the values obtained for cells treated only with the solvent used to dissolve the compound of interest. To compare the toxicity of furosemide pyridinium to that of MPP+, the cells were incubated in the presence of MPP+ (0 to 1000 μM) for 6 h. The culture medium was replaced and the cells were incubated at 37° C. for an additional 24 h (no MPP+). Cell survival was measured at the end of these 24 hours of incubation as described above. When evaluating the effect of different concentrations of α-tocopherol (vitamin E), a membrane antioxidant, the cells were pretreated for 24 h with this antioxidant before being exposed to furosemide pyridinium at a concentration of 0.5 mM under the same experimental conditions as above.

[2] = system: SH-SY5Y neuronal cells; assay: Cell viability test in MTT; format: cell-based, human
Description: as §1, §2, §3

With `NS(=O)(=O)c1cc(C(=O)[O-])c(-[n+]2cccc(O)c2)cc1Cl` [furosemide pyridinium, 4-chloro-2-(3-hydroxypyridinium-1-yl)-5-sulfamoylbenzoate] the cytotoxicity at 96 h [1] was roughly 60%, the “decrease in cell survival” value ([2]; 0.5 mM, 96 h) was “about 20%” and the “effect on cell survival” value ([2]; 24 h of incubation, even at 1 mM) was “no significant effect”. The EC50 ([2]; Homo sapiens, 96 h of incubation, estimated, read-out: EC50 (cell survival)) was 973 µM.
